Test results published in PubChem BioAssay AID252 (DTP/NCI, 2004).
“And” between values parts separate entries of the source, which are not always exact repeats. Identical values can stand only once. Toxic doses and inconclusive results are not listed.

Tested on: BDF1 mice, intracerebral L1210 leukemia, survival T/C
Experiment: NCI In Vivo Anticancer Drug Screen. Data for tumor model L1210 Leukemia (intracerebral) in B6D2F1 (BDF1) mice
Settings: higher = longer survival
Procedure, shortened: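 Transplantable tumour-bearing mice, compound-treated vs vehicle controls; read-out survival, reported as T/C ratio.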

[1] = endpoint: mean survival time, dose: 2.5 mg/kg/injection, schedule: Q01DX009 (ip), vehicle: saline
[2] = endpoint: mean survival time, dose: 5.0 mg/kg/injection, schedule: Q01DX009 (ip), vehicle: saline
[3] = endpoint: mean survival time, dose: 50.0 mg/kg/injection, schedule: Q01DX Z (ip), vehicle: carboxymethylcellulose (CMC)

In the case of `CC(=O)NC1=C(N2CC2C)C(=O)C(NC(C)=O)=C(N2CC2C)C1=O` (stereo not drawn), the T/C (endpoint: mean survival time, dose: 2.5 mg/kg/injection, schedule: Q01DX009 (ip), vehicle: saline with Tween-80) is reported as 118 % of control, the T/C [1] is reported as 111 % of control and the T/C (endpoint: mean survival time, dose: 5.0 mg/kg/injection, schedule: Q01DX009 (ip), vehicle: saline with Tween-80) is reported as 120 % of control. The T/C [2] was 114 % of control, the T/C (endpoint: mean survival time, dose: 10.0 mg/kg/injection, schedule: Q01DX009 (ip), vehicle: saline with Tween-80) was 94 % of control and the T/C (endpoint: mean survival time, dose: 10.0 mg/kg/injection, schedule: Q01DX009 (ip), vehicle: saline) was 97 % of control. The T/C (endpoint: mean survival time, dose: 20.0 mg/kg/injection, schedule: Q01DX009 (ip), vehicle: saline with Tween-80) was 88 % of control.

`O=NN(CCCl)C(=O)Nc1ccc(NC(=O)N(CCCl)N=O)cc1` was tested, and the T/C (endpoint: mean survival time, dose: 44.0 mg/kg/injection, schedule: Q01DX009 (ip), vehicle: carboxymethylcellulose (CMC)) was 186 % of control, the T/C (endpoint: mean survival time, dose: 67.0 mg/kg/injection, schedule: Q01DX009 (ip), vehicle: carboxymethylcellulose (CMC)) was 181 % of control and the T/C (endpoint: mean survival time, dose: 100.0 mg/kg/injection, schedule: Q01DX009 (ip), vehicle: carboxymethylcellulose (CMC)) was 160 % of control. For the same compound, the T/C (endpoint: mean survival time, dose: 109.0 mg/kg/injection, schedule: Q01DX001 (ip), vehicle: carboxymethylcellulose (CMC)) was 119 % of control and 124 % of control, the T/C (endpoint: mean survival time, dose: 225.0 mg/kg/injection, schedule: Q01DX009 (ip), vehicle: carboxymethylcellulose (CMC)) was 94 % of control and the T/C (endpoint: mean survival time, dose: 264.0 mg/kg/injection, schedule: Q01DX001 (ip), vehicle: carboxymethylcellulose (CMC)) was 168 % of control. For the same compound, the T/C (endpoint: mean survival time, dose: 366.0 mg/kg/injection, schedule: Q01DX001 (ip), vehicle: carboxymethylcellulose (CMC)) was 168 % of control and 182 % of control, the T/C (endpoint: mean survival time, dose: 400.0 mg/kg/injection, schedule: Q01DX001 (ip), vehicle: carboxymethylcellulose (CMC)) was 181 % of control and the T/C (endpoint: mean survival time, dose: 550.0 mg/kg/injection, schedule: Q01DX001 (ip), vehicle: carboxymethylcellulose (CMC)) was 155 % of control and 167 % of control. The T/C (endpoint: mean survival time, dose: 600.0 mg/kg/injection, schedule: Q01DX001 (ip), vehicle: carboxymethylcellulose (CMC)) was 172 % of control, the T/C (endpoint: mean survival time, dose: 900.0 mg/kg/injection, schedule: Q01DX001 (ip), vehicle: carboxymethylcellulose (CMC)) was 190 % of control and the T/C (endpoint: mean survival time, dose: 1350.0 mg/kg/injection, schedule: Q01DX001 (ip), vehicle: carboxymethylcellulose (CMC)) was 173 % of control.

In the case of `CN(Cc1cnc2nc(N)nc(N)c2n1)c1ccc(C(=O)N[C@@H](CCC(=O)O)C(=O)O)cc1`, the T/C (endpoint: mean survival time, dose: 0.6 mg/kg/injection, schedule: Q01DX009 (ip), vehicle: saline) is reported as 158 % of control, the T/C (endpoint: mean survival time, dose: 1.25 mg/kg/injection, schedule: Q01DX009 (ip), vehicle: other) is reported as 150 % of control and the T/C (endpoint: mean survival time, dose: 1.25 mg/kg/injection, schedule: Q01DX009 (ip), vehicle: saline) is reported as 168 % of control. For the same compound, the T/C [1] was 112 % of control, the T/C (endpoint: mean survival time, dose: 3.0 mg/kg/injection, schedule: Q01DX009 (ip), vehicle: sodium bicarbonate) was 108 % of control and the T/C [2] was 95 % of control. The T/C (endpoint: mean survival time, dose: 5.0 mg/kg/injection, schedule: Q01DX009 (ip), vehicle: sodium bicarbonate) was 94 % of control, the T/C (endpoint: mean survival time, dose: 8.0 mg/kg/injection, schedule: Q01DX001 (ip), vehicle: sodium bicarbonate) was 111 % of control and the T/C (endpoint: mean survival time, dose: 14.0 mg/kg/injection, schedule: Q04DX003 (ip), vehicle: sodium bicarbonate) was 113 % of control. The T/C (endpoint: mean survival time, dose: 16.0 mg/kg/injection, schedule: Q01DX001 (ip), vehicle: sodium bicarbonate) was 114 % of control, the T/C (endpoint: mean survival time, dose: 19.0 mg/kg/injection, schedule: Q01DX001 (ip), vehicle: water) was 108 % of control and the T/C (endpoint: mean survival time, dose: 23.0 mg/kg/injection, schedule: Q04DX003 (ip), vehicle: sodium bicarbonate) was 112 % of control. The T/C (endpoint: mean survival time, dose: 29.0 mg/kg/injection, schedule: Q01DX001 (ip), vehicle: water) was 111 % of control, the T/C (endpoint: mean survival time, dose: 32.0 mg/kg/injection, schedule: Q01DX001 (ip), vehicle: sodium bicarbonate) was 117 % of control and the T/C (endpoint: mean survival time, dose: 39.0 mg/kg/injection, schedule: Q04DX003 (ip), vehicle: sodium bicarbonate) was 115 % of control. The T/C (endpoint: mean survival time, dose: 43.0 mg/kg/injection, schedule: Q01DX001 (ip), vehicle: water) was 113 % of control, the T/C (endpoint: mean survival time, dose: 64.0 mg/kg/injection, schedule: Q01DX001 (ip), vehicle: sodium bicarbonate) was 121 % of control and the T/C (endpoint: mean survival time, dose: 65.0 mg/kg/injection, schedule: Q04DX003 (ip), vehicle: sodium bicarbonate) was 100 % of control. The T/C (endpoint: mean survival time, dose: 128.0 mg/kg/injection, schedule: Q01DX001 (ip), vehicle: sodium bicarbonate) was 109 % of control, the T/C (endpoint: median survival time, dose: 0.5 mg/kg/injection, schedule: Q01DX009 (ip), vehicle: sodium bicarbonate) was 102 % of control and the T/C (endpoint: median survival time, dose: 1.0 mg/kg/injection, schedule: Q01DX009 (ip), vehicle: sodium bicarbonate) was 113 % of control.

For `O=NN(CCCl)C(=O)N[C@H]1CCCC[C@H]1Cl`, the T/C (endpoint: mean survival time, dose: 8.0 mg/kg/injection, schedule: Q01DX001 (ip), vehicle: carboxymethylcellulose (CMC)) was 103 % of control, the T/C (endpoint: mean survival time, dose: 12.0 mg/kg/injection, schedule: Q01DX001 (ip), vehicle: carboxymethylcellulose (CMC)) was 106 % of control and 110 % of control and 90 % of control and the T/C (endpoint: mean survival time, dose: 18.0 mg/kg/injection, schedule: Q01DX001 (ip), vehicle: carboxymethylcellulose (CMC)) was 106 % of control. For the same compound, the T/C (endpoint: mean survival time, dose: 40.0 mg/kg/injection, schedule: Q01DX001 (ip), vehicle: carboxymethylcellulose (CMC)) was 117 % of control, the T/C (endpoint: mean survival time, dose: 51.0 mg/kg/injection, schedule: Q01DX001 (ip), vehicle: carboxymethylcellulose (CMC)) was 281 % of control and 306 % of control and the T/C (endpoint: mean survival time, dose: 54.0 mg/kg/injection, schedule: Q01DX001 (ip), vehicle: carboxymethylcellulose (CMC)) was 198 % of control. The T/C (endpoint: mean survival time, dose: 62.0 mg/kg/injection, schedule: Q01DX001 (ip), vehicle: carboxymethylcellulose (CMC)) was 159 % of control and 165 % of control and 176 % of control, the T/C (endpoint: mean survival time, dose: 72.0 mg/kg/injection, schedule: Q01DX001 (ip), vehicle: carboxymethylcellulose (CMC)) was 251 % of control and the T/C (endpoint: mean survival time, dose: 90.0 mg/kg/injection, schedule: Q01DX001 (ip), vehicle: carboxymethylcellulose (CMC)) was 209 % of control and 221 % of control and 270 % of control. For the same compound, the T/C (endpoint: mean survival time, dose: 101.0 mg/kg/injection, schedule: Q01DX001 (ip), vehicle: carboxymethylcellulose (CMC)) was 413 % of control and 550 % of control, the T/C (endpoint: mean survival time, dose: 108.0 mg/kg/injection, schedule: Q01DX001 (ip), vehicle: carboxymethylcellulose (CMC)) was 307 % of control and the T/C (endpoint: mean survival time, dose: 135.0 mg/kg/injection, schedule: Q01DX001 (ip), vehicle: carboxymethylcellulose (CMC)) was 278 % of control and 305 % of control. The T/C (endpoint: mean survival time, dose: 203.0 mg/kg/injection, schedule: Q01DX001 (ip), vehicle: carboxymethylcellulose (CMC)) was 119 % of control and 94 % of control.

For `C[C@@H]1CN1C1=CC(=O)C(N2C[C@H]2C)=CC1=O`, the T/C (endpoint: mean survival time, dose: 8.0 mg/kg/injection, schedule: Q01DX009 (ip), vehicle: Klucel (hydroxypropylcellulose) (HPC)) was 95 % of control.

For `O=C(Nc1ccc(C2=NCCN2)cc1)c1ccc(C(=O)Nc2ccc(C3=NCCN3)cc2)c(Cl)c1`, the T/C (endpoint: mean survival time, dose: 12.0 mg/kg/injection, schedule: Q01DX015 (ip), vehicle: carboxymethylcellulose (CMC)) was 112 % of control, the T/C (endpoint: mean survival time, dose: 12.5 mg/kg/injection, schedule: Q01DX Z (ip), vehicle: carboxymethylcellulose (CMC)) was 114 % of control and the T/C (endpoint: mean survival time, dose: 18.0 mg/kg/injection, schedule: Q01DX015 (ip), vehicle: carboxymethylcellulose (CMC)) was 120 % of control. The T/C (endpoint: mean survival time, dose: 25.0 mg/kg/injection, schedule: Q01DX Z (ip), vehicle: carboxymethylcellulose (CMC)) was 108 % of control, the T/C (endpoint: mean survival time, dose: 27.0 mg/kg/injection, schedule: Q01DX015 (ip), vehicle: carboxymethylcellulose (CMC)) was 118 % of control and the T/C (endpoint: mean survival time, dose: 37.5 mg/kg/injection, schedule: Q01DX Z (ip), vehicle: carboxymethylcellulose (CMC)) was 102 % of control. The T/C (endpoint: mean survival time, dose: 48.0 mg/kg/injection, schedule: Q01DX001 (ip), vehicle: carboxymethylcellulose (CMC)) was 98 % of control, the T/C (endpoint: mean survival time, dose: 48.4 mg/kg/injection, schedule: Q01DX001 (ip), vehicle: carboxymethylcellulose (CMC)) was 102 % of control and the T/C [3] was 96 % of control. The T/C (endpoint: mean survival time, dose: 74.0 mg/kg/injection, schedule: Q01DX001 (ip), vehicle: carboxymethylcellulose (CMC)) was 107 % of control and 100 % of control.

With `COc1cc(NS(C)(=O)=O)ccc1Nc1c2ccc([N+](=O)[O-])cc2nc2c(C)cccc12` the T/C [1] was 93 % of control, the T/C (endpoint: mean survival time, dose: 2.5 mg/kg/injection, schedule: Q01DX009 (sc), vehicle: saline) was 93 % of control and the T/C [2] was 103 % of control. For the same compound, the T/C (endpoint: mean survival time, dose: 5.0 mg/kg/injection, schedule: Q01DX009 (sc), vehicle: saline) was 96 % of control and the T/C (endpoint: mean survival time, dose: 10.0 mg/kg/injection, schedule: Q01DX009 (sc), vehicle: saline) was 93 % of control.

In the case of `C[C@H]1CN1C1=CC(=O)C(N2C[C@@H]2C)=CC1=O`, the T/C (endpoint: mean survival time, dose: 8.0 mg/kg/injection, schedule: Q01DX009 (ip), vehicle: saline) is reported as 90 % of control.

For `CCOC(=O)c1ccc(NC(=O)N(C)N=O)cc1`, the T/C (endpoint: mean survival time, dose: 75.0 mg/kg/injection, schedule: Q01DX001 (ip), vehicle: carboxymethylcellulose (CMC)) was 94 % of control, the T/C (endpoint: mean survival time, dose: 150.0 mg/kg/injection, schedule: Q01DX001 (ip), vehicle: carboxymethylcellulose (CMC)) was 102 % of control and the T/C (endpoint: mean survival time, dose: 300.0 mg/kg/injection, schedule: Q01DX001 (ip), vehicle: carboxymethylcellulose (CMC)) was 97 % of control.

In the case of `O=C(Nc1ccc(C2=NCCN2)cc1)c1ccc(C(=O)Nc2ccc(C3=NCCN3)cc2)cc1`, the T/C [3] is reported as 107 % of control, the T/C (endpoint: mean survival time, dose: 100.0 mg/kg/injection, schedule: Q01DX Z (ip), vehicle: carboxymethylcellulose (CMC)) is reported as 110 % of control and the T/C (endpoint: mean survival time, dose: 200.0 mg/kg/injection, schedule: Q01DX Z (ip), vehicle: carboxymethylcellulose (CMC)) is reported as 121 % of control. For the same compound, the T/C (endpoint: mean survival time, dose: 250.0 mg/kg/injection, schedule: Q01DX Z (ip), vehicle: carboxymethylcellulose (CMC)) was 116 % of control and the T/C (endpoint: mean survival time, dose: 375.0 mg/kg/injection, schedule: Q01DX Z (ip), vehicle: carboxymethylcellulose (CMC)) was 97 % of control.
